This is an account of results in patent US11739337B2, “Gadusol derivative production in bacteria” (Oregon State University, priority 2019, dated 2023).

Read-outs that look alike come from different tables or passages of the source.

The conditions of data set [1]: cited from earlier work.
For data set [2] the following is noted: comparison value for shinorine; cited from earlier work.
A further data set can be described thus: Solubility in methanol. The class given is physicochemical.
Data set [3] is described as follows: Molar extinction coefficient by UV absorbance at 340 nm. The class given is physicochemical. Conditions: 50 mM phosphate buffer at pH 7.0, absorbance at 340 nm; in M-1 cm-1 (unit assumed). Here is the method:
S. coelicolor A(3)2 pTMAO-G3 was cultured as described above at larger scales and 225 mL of S. coelicolor pTMAO-G3 culture broth was dried to ˜20 mL and passed through a C18 solid phase extraction (SPE) column. Gadusol and gadusporines were mostly un-retained, however, washing with water for 1-2 column volumes (CVs) eluted the remaining compounds. The eluent was combined and dried to ˜20 mL, which was applied directly to a 300 mL Bio-Rad AG®-1×8 (acetate form) column. After washing with 2 L of water, 500 mM acetic acid was used to elute gadusol and gadusporines. All fractions containing both gadusol and gadusporines were combined and fractions lacking gadusol but containing gadusporines were combined separately and dried. The gadusol-free fraction was further purified using the preparative HPLC as described previously to give gadusporine A (9.0 mg) (see FIG. 5A) as two different isomers. All NMR experiments were performed on a 700 MHz Bruker NMR Spectrometer with a cryo probe at the Oregon State University (OSU) NMR facility. The molar extinction coefficient of gadusporine A was determined by dissolving 0.6 mg in 50 mM phosphate buffer at pH 7.0 in a 25 mL volumetric flask then measuring UV absorbance at 340 nm.

Data set [4] in a line: UV absorbance maximum (λmax). The class given is physicochemical. To be noted: for UV maximum: under acidic conditions, HPLC of culture broth. Here is the method:
Gadusporine A (see FIG. 5A), a yellow-brown solid, UV (50 mM phosphate buffer pH 7) λmax 340 nm, (50 mM acetic acid pH 3) λmax 338 nm. ^1H NMR (700 MHz, D2O) and ^13C NMR (175 MHz, D2O) see Table 3. HR-ESIMS m/z 349.1239 [M+H]^+ (calculated for C13H20N2O9, 349.1247).
Gadusporine A was produced at 20 mg/L. Gadusol was produced by pTMAO-G1 at of 29 mg/L.
Shinorine has been reported to have λmax=330 nm at pH 1.7 and λmax=334 nm at pH 7. […] Gadusporine A has a molar extinction coefficient ε=49,400, as measured in 50 mM phosphate buffer at pH 7.0, which is slightly higher than shinorine (ε=44,000), thus stronger UV absorbance activity.

For data set [5] the following is noted: background statement; cited from earlier work.

On to `COC1=C(NCC(=O)O)C[C@@](O)(CO)C/C1=N\[C@@H](CO)C(=O)O` [Shinorine, shinorine], for which the λmax in data set [1] (pH 1.7, reported) is 330 nm; in data set [1] (pH 7, reported) it was 334 nm. In addition, the “molar extinction coefficient ε” value in data set [2] was 44,000. The solubility in methanol entry in the data set “Solubility in methanol” was “readily dissolved in methanol”.

Regarding `COC1=C(NCC(=O)O)C[C@@](O)(CO)[C@@H](O)/C1=N\[C@@H](CO)C(=O)O` [gadusporine A, (S)-2-(((5R,6S,E)-3-((carboxymethyl)amino)-5,6-dihydroxy-5-(hydroxymethyl)-2-methoxycyclohex-2-en-1-ylidene)amino)-3-hydroxypropanoic acid], the “molar extinction coefficient ε” value in data set [3] is 49,400. For the same molecule, the “UV λmax” value is 338 nm in data set [4] (50 mM acetic acid pH 3) and 340 nm in data set [4] (50 mM phosphate buffer pH 7). Further, the values for the λmax in data set [4] (pH 2.0) and in data set [4] (pH 7.0) were 338 nm and 340 nm, respectively. For the same molecule, in data set [4], the UV maximum was found to be 338 nm.

Turning to `C/C=C/NC1=C(OC)C(=NCC(=O)O)CC(O)(CO)C1` (centres unmarked) [palythene], in data set [1] (background, no pH given), the λmax is given as 360 nm.

As to `COC1=C(NCC(=O)O)C[C@@](O)(CO)[C@@H](O)/C1=N\[C@@H](C)C(=O)O` [gadusporine B, (S)-2-(((5R,6S,E)-3-((carboxymethyl)amino)-5,6-dihydroxy-5-(hydroxymethyl)-2-methoxycyclohex-2-en-1-ylidene)amino)propanoic acid], in “Solubility in methanol”, the solubility in methanol result is recorded as “not very soluble in methanol”. Also, the figures for the “UV λmax” value in data set [4] (50 mM acetic acid pH 3) and in data set [4] (50 mM phosphate buffer pH 7) were 338 nm and 340 nm, respectively. The molecule also gave a UV maximum in data set [4] of 338 nm.

`C/C=C\NC1=C(OC)C(=NCC(=O)O)CC(O)(CO)C1` (centres unmarked) [usujirene]: the λmax in data set [1] (background, no pH given) is recorded as 357 nm.

As for prasiolin, the λmax in data set [1] (background, no pH given) was 324 nm.

As to `COC1=C(O)CC(O)(CO)C(O)C1=O` (centres unmarked) [Gadusol, gadusol], the figures for the UV absorbance maxima in data set [1] (pH 2.5) and in data set [1] (pH 7.0) were 268 nm and 296 nm, respectively. For the same molecule, in data set [5], the antioxidant activity result is “antioxidant activity”.
